Data on 24 compounds can be found in ChEMBL document CHEMBL4765428, “Design, synthesis, and electrophysiological evaluation of NS6740 derivatives: Exploration of the structure-activity relationship for alpha7 nicotinic acetylcholine receptor silent activation” (Eur J Med Chem, 2020).

For experiment [1], the target named is T1, Neuronal acetylcholine receptor subunit alpha-7 (Homo sapiens, UniProt P36544). Kind of experiment: Partial agonist activity at human alpha7 nAChR expressed in Xenopus laevis oocytes assessed as inhibition of Ach response at 10 to 30 uM at -60 mV holding potential by measuring net charge preincubated with compound followed by Ach addition by two electrode voltage-clamp assay. In kind it is cell-based. Conditions: Oocyte, dose 10-30 µM. A general note: In two-electrode clamp one electrode senses voltage and the other passes current.
T1 sequence (P36544 whole entry): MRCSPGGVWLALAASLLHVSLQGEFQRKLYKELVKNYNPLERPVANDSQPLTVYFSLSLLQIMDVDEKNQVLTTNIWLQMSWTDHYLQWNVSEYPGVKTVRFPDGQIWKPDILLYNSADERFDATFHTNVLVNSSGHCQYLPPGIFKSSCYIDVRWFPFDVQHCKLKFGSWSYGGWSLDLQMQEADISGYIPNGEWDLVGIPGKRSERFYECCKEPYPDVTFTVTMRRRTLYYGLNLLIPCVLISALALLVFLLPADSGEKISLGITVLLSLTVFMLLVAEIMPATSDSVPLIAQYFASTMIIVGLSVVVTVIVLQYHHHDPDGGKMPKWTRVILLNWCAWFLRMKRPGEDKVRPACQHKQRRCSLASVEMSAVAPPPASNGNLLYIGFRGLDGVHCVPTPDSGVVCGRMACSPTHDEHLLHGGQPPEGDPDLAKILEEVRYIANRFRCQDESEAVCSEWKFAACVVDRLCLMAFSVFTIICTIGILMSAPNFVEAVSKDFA

Experiment [2] addresses T1, Neuronal acetylcholine receptor subunit alpha-7. Kind of experiment: Partial agonist activity at human alpha7 nAChR expressed in Xenopus laevis oocytes assessed as residual potentiation of Ach response at 10 uM at -60 mV holding potential by measuring net charge preincubated with compound followed by Ach addition after PNU-120596 addition by two electrode voltage-clamp assay. In kind it is cell-based. Conditions: Oocyte.

Experiment [3] shares this target. As to the kind of experiment: Partial agonist activity at human alpha7 nAChR expressed in Xenopus laevis oocytes at 10 uM at -60 mV holding potential by measuring net charge by two electrode voltage-clamp assay. It is filed as cell-based. Conditions: Oocyte.
Experiment [4] shares this target. As to the kind of experiment: Partial agonist activity at human alpha7 nAChR expressed in Xenopus laevis oocytes assessed as direct potentiation of Ach response at 10 uM at -60 mV holding potential by measuring net charge co-application of compound and PNU-120596 by two electrode voltage-clamp assay. In kind it is cell-based. Particulars: Oocyte.
Experiment [5] has the same target. Kind of experiment: Partial agonist activity at human alpha7 nAChR expressed in Xenopus laevis oocytes at -60 mV holding potential by two electrode voltage-clamp assay. Conditions: for Imax: Oocyte, filed as partial agonist. It is filed as cell-based, Oocyte.
Experiment [6] shares this target. Kind of experiment: Partial agonist activity at human alpha7 nAChR expressed in Xenopus laevis oocytes at 1 to 30 uM at -60 mV holding potential by two electrode voltage-clamp assay. It is filed as cell-based. Conditions: Oocyte, dose 1-30 µM.
Experiment [7] shares this target. Kind of experiment: Partial agonist activity at human alpha7 nAChR expressed in Xenopus laevis oocytes assessed as residual potentiation of Ach response at 3 uM at -60 mV holding potential by measuring net charge preincubated with compound followed by Ach addition after PNU-120596 addition by two electrode voltage-clamp assay. In kind it is cell-based. Conditions: Oocyte, filed as partial agonist.

The target is the same in experiment [8]. Kind of experiment: Partial agonist activity at human alpha7 nAChR expressed in Xenopus laevis oocytes assessed as residual potentiation of Ach response at 30 uM at -60 mV holding potential by measuring net charge preincubated with compound followed by Ach addition after PNU-120596 addition by two electrode voltage-clamp assay. It is filed as cell-based. Particulars: Oocyte, filed as partial agonist.

Experiment [9] shares this target. As to the kind of experiment: Partial agonist activity at human alpha7 nAChR expressed in Xenopus laevis oocytes assessed as inhibition of Ach response at 30 uM at -60 mV holding potential by measuring net charge preincubated with compound followed by Ach stimulation by two electrode voltage-clamp assay. It is filed as cell-based. Conditions: Oocyte, filed as partial agonist.

Experiment [10] shares this target. Kind of experiment: Partial agonist activity at human alpha7 nAChR expressed in Xenopus laevis oocytes assessed as direct potentiation of Ach response at 30 uM at -60 mV holding potential by measuring net charge co-application of compound and PNU-120596 by two electrode voltage-clamp assay. It is filed as cell-based. Particulars: Oocyte, filed as partial agonist.

Experiment [11] shares this target. As to the kind of experiment: Partial agonist activity at human alpha7 nAChR expressed in Xenopus laevis oocytes assessed as inhibition of Ach response at 3 uM at -60 mV holding potential by measuring net charge preincubated with compound followed by Ach stimulation by two electrode voltage-clamp assay. Particulars: Oocyte. In kind it is cell-based.

The structures appear in SMILES notation. Activity calls are given as the source filed them. No cut-off for these calls is given here.

Regarding `O=C(c1ccc(-c2cccc(Cl)c2)o1)N1CCN2CCC1CC2`, the Activity in experiment [1] came out at 0.04. Also, the outcome in experiment [2] (filed as partial agonist) was Active. For the same compound, the outcome in [3] was inactive.

Take `O=C(c1ccco1)N1CCN2CCC1CC2`: in [2], the outcome was inactive. Besides, the Activity in experiment [3] (filed as partial agonist) came out at 0.71. Besides, the result in experiment [4] (filed as partial agonist) was Active. In addition, in [5], the EC50 (commonly the midpoint of the concentration-response curve) worked out at 764 nM and the Imax is 0.71.

On to `Cc1cccc(-c2ccc(C(=O)N3CCN4CCC3CC4)o2)c1`, for which the Activity in experiment [1] (filed as partial agonist) is 0.2; in [2] (filed as partial agonist), 30.7. Moreover, the outcome in [3] was inactive.

Turning to `Nc1cccc(-c2ccc(C(=O)N3CCN4CCC3CC4)o2)c1`, the figures for the Activity in experiment [1] (filed as partial agonist), in experiment [3] (filed as partial agonist) and in [4] (filed as partial agonist) were 0.5, 0.1 and 24.6, respectively.

As for `O=C(c1ccc(-c2ccccc2)o1)N1CCN2CCC1CC2`, the Activity stood at 0.14 in [1] (filed as partial agonist), 18.3 in [2] (filed as partial agonist) and 0.54 in experiment [3] (filed as partial agonist).

On to `C[N+]12CCC(CC1)N(C(=O)c1ccc(-c3cccc(C(F)(F)F)c3)o1)CC2`, for which the Activity in experiment [2] (filed as partial agonist) was found to be 1.39. Moreover, the Activity in experiment [3] (filed as partial agonist) turned out to be 0.79. Also, the outcome in experiment [4] (filed as partial agonist) was Active. In experiment [5], this compound had an EC50 of 322 nM and an Imax of 0.81.

Turning to `CCN(CC)C(=O)c1ccc(-c2cccc(C(F)(F)F)c2)o1`, the result in experiment [1], in experiment [2], in [3] and in experiment [4] was inactive.

Take `O=C(c1ccc(-c2cncc3ccccc23)o1)N1CCN2CCC1CC2`: the figures for the Activity in experiment [1] (filed as partial agonist), in experiment [3] (filed as partial agonist) and in experiment [4] (filed as partial agonist) were 0.94, 0.11 and 20.4, respectively. The result in experiment [2] was inactive.

Turning to `O=C(c1ccc(-c2cccc(O)c2)o1)N1CCN2CCC1CC2`, the outcome in experiment [1] and in experiment [3] was inactive. Further, in [2] (filed as partial agonist), the result was Active.

For `CCN1CCN2CCC1CC2`, the outcome in experiment [1], in experiment [3] and in experiment [4] was inactive.

For the compound `O=C(c1ccc(-c2cccc([N+](=O)[O-])c2)o1)N1CCN2CCC1CC2`, the outcome in [1] and in experiment [3] was inactive. Further, the Activity amounted to 4.78 in experiment [2] (filed as partial agonist) and 12.2 in [4] (filed as partial agonist).

`O=C(c1ccc(-c2cccc(C(F)(F)F)c2)o1)N1CC2CCN(CC2)C1`: the result in experiment [1], in experiment [2], in experiment [3] and in experiment [4] was inactive.

Regarding `O=C(c1ccc(-c2ccc(C(F)(F)F)cc2)o1)N1CCN2CCC1CC2`, the Activity in [1] (filed as partial agonist) amounted to 0.64; in experiment [2] (filed as partial agonist), 3.23; in experiment [3] (filed as partial agonist) it was 0.4; in experiment [4] (filed as partial agonist), 6.25.

Regarding `CC(=O)N1CCN2CCC1CC2`, the result in experiment [2] and in [3] was inactive. The result in experiment [4] (filed as partial agonist) was Active.

Take `O=C(c1ccc(-c2cccc(C(F)(F)F)c2)o1)N1C[C@H]2C[C@@H]1CN2`: the outcome in [1], in experiment [2] and in experiment [3] was inactive. Also, the Activity in experiment [4] (filed as partial agonist) amounted to 43.7.

For `FC(F)(F)c1cccc(-c2ccc(CN3CCN4CCC3CC4)o2)c1`, the result in experiment [2], in [3] and in [4] was inactive.

Consider `C1CN2CCC(CC2)N1`, for which the result in [1], in experiment [2], in [3] and in experiment [4] was inactive.

For `O=C(c1ccc(-c2cccc(I)c2)o1)N1CCN2CCC1CC2`, the outcome in experiment [1] (filed as partial agonist) and in experiment [2] (filed as partial agonist) was Active. Also, the result in experiment [3] was inactive.

For `O=C(c1ccc(-c2ccoc2)o1)N1CCN2CCC1CC2`, the result in [1] (filed as partial agonist), in [2] (filed as partial agonist) and in experiment [3] (filed as partial agonist) was Active.

Regarding `O=C(c1ccc(-c2ccc3ccccc3c2)o1)N1CCN2CCC1CC2`, the values for the Activity in experiment [1] (filed as partial agonist) and in experiment [3] (filed as partial agonist) were 1.18 and 0.15, respectively. Besides, the result in experiment [2] and in experiment [4] was inactive.

In the case of `O=C(c1ccc(-c2cccc(C(F)(F)F)c2)o1)N1CCN2CCC1CC2`, the result in [6] and in [11] was inactive. Moreover, the Activity in experiment [1] (filed as partial agonist) is 0.19; in [7] it was 123; in experiment [2] (filed as partial agonist), 111; in experiment [8], 57.4; in [9] it was 0.18; in [10], 2.73.

As to `O=C(c1ccc(-c2cccc(F)c2)o1)N1CCN2CCC1CC2`, the outcome in experiment [1] (filed as partial agonist) and in experiment [2] (filed as partial agonist) was Active. Further, the outcome in experiment [3] was inactive.

In the case of `O=C(c1ccc(-c2cccc(C(F)(F)F)c2)o1)N1C[C@@H]2C[C@H]1CN2`, the result in experiment [1], in [2] and in [3] was inactive. Moreover, the Activity in experiment [4] (filed as partial agonist) worked out at 15.2.

With `O=C(c1ccc(-c2cccc(Br)c2)o1)N1CCN2CCC1CC2`, the result in experiment [1] (filed as partial agonist) and in [2] (filed as partial agonist) was Active. Further, in experiment [3], the outcome was inactive.
